Assay results reported in a melting point compilation (Tetko et al.).

Compound	melting point [°C]
OCc1ccc(N2CCCCC2)cc1	148 to 149
CCS(=O)(=O)CCO	46
COc1ccc(C2Cc3ccccc3C(C)(O)O2)cc1 (stereo not given)	102
Cc1n[nH]c(C)c1-c1ccc(-c2ccccc2)cc1	221 to 222
CC(=O)C12CC3CC(CC(C3)C1)C2	53 to 55
NC(=O)[C@@H]1CCCC[C@@H]1O (relative stereo)	115 to 119
O=c1[nH]cnc2c1cnn2C1CCCCC1	251 to 252
CC1NC(C(=O)O)Cc2c1[nH]c1ccccc21 (stereo not given)	243 to 245
CCOC(=O)C1=C(C)N(C)C(=S)NC1c1ccccc1 (stereo not given)	147
CCCCCCCCCCCCCCCCC(C)C	15
COc1ccc(-c2ccccc2)cc1NC(=O)C(F)(F)C(F)(F)C(F)(F)C(F)(F)C(F)(F)C(F)(F)C(F)(F)C(F)(F)F	118
NCCCCCCCCCN	38
ClCc1ccc(Br)cc1	50
C(=C(\Oc1ccccc1)c1nc2ccccc2s1)/c1ccc2c(c1)OCO2	170
COc1ccc(Oc2ccc([N+](=O)[O-])cc2C(=O)Cl)cc1	91 to 93
Cc1cc(O)c(C)cc1N	242
OC1COC(O)C(O)C1O (stereo not given)	152 to 160
COc1ccc2cc(Br)ccc2c1CCl	144 to 146
Nc1c([N+](=O)[O-])cc(F)c(F)c1F	46 to 48
CCOC(=O)c1cc2cc(C(F)(F)F)c(C(F)(F)F)cc2c(=O)o1	193
Cc1ccc(S(=O)(=O)NC(=O)NC2CCCCC2)cc1	175
COc1cc(CC#N)c(OC)cc1CC#N	198 to 200
CCOC(=O)c1c(N)sc2c1CCN(Cc1ccccc1)C2	112
Nc1ccc2cc3ccc(N)cc3nc2c1	285
O=C1/C(=C/c2ccccc2)SC(=S)N1CN1CCOCC1	121
Cc1cc(C)c(C)c(O)c1C	118

Compound	melting point [°C]
COC(=O)C1(Br)CCC(Br)(C(=O)OC)CC1 (stereo not given)	148 to 150
CC(=O)CC(=O)CC(C)=O	49
O=C1OC(c2ccccc2)=N/C1=C\c1ccc(Br)o1	122
Oc1c(F)c(F)c(F)c2c(F)c(F)c(F)c(F)c12	103 to 107
O=C(O)C=Cc1cccc(OC(F)(F)F)c1	93 to 96
COC(=O)C1(S(=O)(=O)c2ccccc2)CC1	74.5
COC1(OC)c2ccccc2C(O)(c2ccccc2)c2ccccc21	189
COc1cc(OC)nc(NC(=O)NS(=O)(=O)Nc2ccccc2C(=O)C2CC2)n1	162
O=C(Cl)c1ccc2noc(-c3ccc(Cl)cc3)c2c1	180
CCOC(=O)C=Cc1c[nH]c2ccccc12	120
Clc1cc2c(cc1Cl)-c1cc(Cl)c(Cl)cc1-2	237 to 240
CC(C)OC(=O)c1cc(C(=O)OC(C)C)cc([N+](=O)[O-])c1	65
CCOC(=O)Nc1c([N+](=O)[O-])cc(C)cc1[N+](=O)[O-]	65
CC12CCCC1C1CCC(CCC(=O)O)C(C)(CCC(=O)O)C1CC2 (stereo not given)	232
CC(C)Oc1cc(-n2nc(C(C)(C)C)oc2=O)c(Cl)cc1Cl	90
Sc1nnc(-c2cccc3ccccc23)n1Cc1ccco1	177 to 178
CCCS(=O)(=O)O	8
C=C1C(=CC=C2CCCC3(C)C2CCC3C(C)CCCC(C)(C)O)CC(O)CC1O (stereo not given)	115
CC(=O)Oc1ccc2ccc(OC(C)=O)cc2c1	131
ClCCN(CCCl)c1ccc2ccccc2c1	55
N#Cc1c(S)nc2c(c1C(F)(F)F)CCCC2	216 to 220
COC(=O)Nc1nc2ccccc2[nH]1	305
O=[N+]([O-])c1ccc(N/N=C2\C=C(c3ccccc3)c3ccccc32)cc1	265 to 266
CCOC(=O)c1cccc(C(=O)OCC)c1	11.5
N#CC1=C(N)Oc2[nH]nc(C(F)(F)F)c2C1c1ccccc1Cl (stereo not given)	181
CC(=O)C1=CCCCC1	73

Compound	melting point [°C]
CN1CCc2c(c3ccccc3n2Cc2ccccc2)C1	95
COc1ccc(C(C)(C)c2ccc(OC)cc2)cc1	54 to 59
COc1cc(Br)c(CC(=O)O)cc1OC	94 to 96
CCOC(=O)c1cc(Cl)c(O)c(Cl)c1	111
CN1C(=O)c2ccc([N+](=O)[O-])cc2C1=O	178 to 179
CC(=O)Nc1ccc(F)cc1Cl	117 to 120
CSCCC(N)CO (stereo not given)	31 to 36
CCCCCCCCOc1ccc(NC(=O)c2ccc(OC)cc2)cc1	152 to 154
COP(=S)(OC)Oc1c(Cl)cc(C)cc1Cl	79
OCc1ccccc1Cn1cncn1	98 to 100
CCc1occc(=O)c1O	162
CSC(=O)c1cccc2nnsc12	133
COCCl	-104
Nc1ccc(O)c2c1C(=O)c1ccccc1C2=O	216
O=Cc1cc(I)c(O)c(I)c1	201
Oc1ncccc1Br	187
COC(=O)c1scc(S(C)(=O)=O)c1-n1cccc1	124 to 126
O=C(O)C(=O)c1cccs1	89 to 95
Sc1cccc(Cl)c1Cl	57 to 61
CC1=C(C(=O)OCc2ccccc2)C(c2ccco2)NC(=S)N1 (stereo not given)	164
C=CCc1c(O)c(C(=O)c2ccccc2)cc(C(=O)c2ccccc2)c1O	161
N#Cc1c(Cl)cccc1Oc1ccccc1	61
Cc1ccc(C(N)=O)cc1[N+](=O)[O-]	166
O=C1CC(c2ccccc2)Oc2ccccc21 (stereo not given)	77
CSc1nc(C=O)ccc1C#N	140
O=C(O)CCCCCC(=O)c1ccccc1	85

Compound	melting point [°C]
O=C(O)CCN1CCNCC1	71 to 86
OCc1ccccc1O[C@@H]1O[C@H](CO)[C@@H](O)[C@H](O)[C@H]1O	198 to 200
CCCC=NO	-29.5
CN(C)S(F)(F)F	-78.7
CC[C@H](N)P(=O)(O)O	260
CC(O)CCc1ccc2c(c1)N(C(=O)c1ccccc1)C(C)CC2 (stereo not given)	77
NS(=O)(=O)c1ccc2ccccc2c1	219
C#CC(=O)O	18
S=c1[nH]ccn1-c1ccccc1Cl	246 to 248
COC(=O)C=Cc1ccccc1	36
CCCCCCCCCCSCCCCCCCCCC	27
O=C(O)c1ccc2c(c1)OC(F)(F)O2	156
Nc1nc2cc3nc(N)c(-c4ccccc4)cc3cc2cc1-c1ccccc1	301
Cc1cc2c(c(C)c1C)C(=O)C2	103
CC(O)(c1ccccc1)c1ccccc1	80
O=S(=O)(Cl)c1ccc2c(c1)OCCCO2	50 to 52
Nc1ccc([N+](=O)[O-])c2c1C(=O)c1c(Cl)ccc(Cl)c1C2=O	307
CC(C)[C@@H](NC(=O)OC(C)(C)C)C(=O)O	164 to 165
N#CO	-86
Brc1n[nH]c(Br)n1	201
O=C(c1ccc(F)cc1)N1CCCCC1	60 to 62
C[C@]1(O)C#CCCCCCC#C[C@@](C)(O)CC1	100
Cc1cc(C(=O)NCc2ccc(Cl)cc2)no1	140 to 143
CC(=O)OC1CC2C(C)C(=O)C3(C(O)CC4C(C)(C)CCCC4(CO)C13)C2O (stereo not given)	120
C#CC1(O)CCC2C3CCc4cc(OC5CCCC5)ccc4C3CCC21C (stereo not given)	108
O=C(O)c1cc([N+](=O)[O-])ccc1N1CCOCC1	166 to 172

Compound	melting point [°C]
Nc1cc(CO)ccn1	83
CC12CCc3c(ccc4cc(O)ccc34)C1(C)CCC2=O (stereo not given)	261
C=CCNC(=O)NCC=C	91.5
COC(=O)C(CCSC)NC(=O)c1ccc(C(F)(F)F)cc1 (stereo not given)	94 to 96
CCCCCOC(=O)C1=C(C)NC(=O)NC1c1ccc2c(c1)OCO2 (stereo not given)	144
COc1cc(OC)nc(NC(=O)NS(=O)(=O)c2ncccc2C(F)(F)F)n1	180
Cc1ccc2ncccc2c1[N+](=O)[O-]	118 to 120
Brc1cccc2cc[nH]c12	46 to 47
COc1cc(C(C)(C)C)c(O)c(C(C)(C)C)c1	105
CC(=O)c1c(C)c(C)cc(C)c1C	75
NC(=NO)c1ccc(F)cc1	92 to 95
Cc1cc(-c2onc(C)c2C(=O)O)no1	167
O=C(Cl)c1csc(-c2cccc(Cl)c2Cl)n1	108 to 111
Cc1ccccc1NC(=O)C(C(F)(F)F)C(F)(F)F	193 to 195
CC1(C)OC(=O)c2ccccc21	70
C#CC1(O)CCC2(C)C(CCC3C2CCC2(C)C(OC(C)=O)CCC32)C1 (stereo not given)	196
COC(=O)c1cscc1N	35 to 38
O=C(NC(Cc1ccc(Br)s1)C(=O)O)OCC1c2ccccc2-c2ccccc21 (stereo not given)	158
OCc1nc2ccccc2s1	98
COC(=O)c1ccc(O)c(N)c1	143
O=C1[C@H]2Cc3ccccc3C[C@H]2C(=O)[C@@H]2Cc3ccccc3C[C@H]12	224 to 227
CN1CCN(Cc2ccc(I)cc2)CC1	105 to 106
O=Cc1ccccc1Oc1ccccn1	51 to 52
CN(C)c1ccc(CCC2CCc3ccccc3N2N=O)cc1 (stereo not given)	91
O=C(Cl)c1ccc(Oc2ccccc2)nc1	80 to 82
O=C1CCC2(O)C3Cc4ccc(O)c5c4C2(CCN3CC2CC2)C1O5 (stereo not given)	169
